This note sets out measurements from patent US8163509B2, “Biological markers predictive of anti-cancer response to insulin-like growth factor-1 receptor kinase inhibitors” (The Regents of the University of Colorado, A Body Corporate, priority 2008, dated 2012).

Read-outs that look alike come from different tables or passages of the source.

Holding throughout (assay): SRB proliferation assay, 72 h
Common to all, as to type: cell-based, human
(In general: In SRB staining, fixed cells bind dye roughly in proportion to their protein.)

The test system of one experiment is HT29 CRC cell line. As to the method: (§1) FIG. 17: Results of cell proliferation assay on the panel of 27 CRC cell lines. Cell proliferation was evaluated by SRB following exposure to OSI-906 for 72 hours. Cells were plated at an optimized density in 96-well plates, incubated overnight at 37° C., and then exposed to a serial dilution of OSI-906. After 72 hours incubation, cells were fixed with trichloroacetic acid and an SRB was performed as described in materials and methods.
(§2) Cell Lines and Culture. […] human colon cancer cell lines, were obtained from American Type Culture Collection (Manassas, Va.). Cells were grown in RPMI medium supplemented with 10% fetal bovine serum, 1% non-essential amino acids, 1% penicillin/streptomycin and were maintained at 37° C. in an incubator under an atmosphere containing 5% CO2. The cells were routinely screened for the presence of mycoplasma (MycoAlert, Cambrex Bio Science, Baltimore, Md.) and were exposed to PQIP when they reached approximately 70% confluence.
Cytotoxicity and Combination Effects: HT29, HCT116, RKO, and LS513 CRC cell lines were exposed to 0-10 nM SN-38 (7-Ethyl-10-hydroxy-camptothecin), 0-10 μM Oxaliplatin, or 0-50 μM 5-Fluorouracil (5-FU) for 72 hours. HT29, HCT116, RKO, and LS513 CRC cell lines were exposed to PQIP in combination with SN-38, Oxaliplatin or 5-FU. In all combinations, cells were seeded in 96-well flat bottomed plates and left overnight. PQIP and chemotherapy were both added for 72 hours. The results of the combinations were analyzed by the Chou and Talalay method with Calcusyn (Biosoft, Ferguson, Mo.).
(§3) The CRC cell lines were treated with a range of concentrations of PQIP (from 0.05-5 μM) for 72 hours.
To characterize the potential functionality that the selected genes may play in the sensitivity or resistance to PQIP, resistant and sensitive CRC cell lines were stably transfected with specific shRNA, treated with increasing concentrations of PQIP and proliferation assays performed to observe, if when manipulated, these genes alter responsiveness (i.e. the S or R phenotype). Two resistant cell lines HCT116 and SW480 were transfected with metallothionein 2A (MT-2A) shRNA and were exposed to increasing concentrations of PQIP. […] Both of these transfected cell lines were assayed for proliferation as described above. […] HT29 tumor cells were transfected with shRNA for ALDH1A1, which is up regulated in the PQIP sensitive cell lines.
Combination treatment of PQIP with Chemotherapy in Colon Cancer Cell Lines: IGF1R is overexpressed in CRC and has been associated with resistance to chemotherapy. Therefore, we investigated the effect of PQIP in combination with standard chemotherapy for CRC. Four CRC cell lines including, two PQIP sensitive and two PQIP resistant, were chosen for combinations. HT29 and LS513 CRC cell lines were classified as sensitive, with IC50's around 0.3 μmol/L. HCT116 and RKO CRC cell lines were classified as resistant, with IC50>5 μmol/L. Concentrations were chosen based on single agent proliferation curves for each compound. Cells were exposed to PQIP and chemotherapy (SN38, oxaliplatin, or 5-Fluorouracil) concurrently for 72 h and combinations were assessed using the SRB assay. […] It thus appears that biomarkers which predict tumor cell sensitivity will also indicate which cells will respond in a synergistic manner to an IGF-1R kinase inhibitor (e.g. PQIP) and chemotherapy (i.e. SN38, oxaliplatin, or 5-Fluorouracil).
Cell Lines and Culture: Twenty-seven human colon cancer cell lines, were obtained from American Type Culture Collection (Manassas, Va.). The GEO cells were a generous gift from Dr. Fortunato Ciardiello (Cattedra di Oncologia Medica, Dipartimento Medico-Chirurgico di Internistica Clinica e Sperimentale “F Magrassi e A Lanzara,” Seconda Università degli Studi di Napoli, Naples). […]

Another experiment concerns SW620 CRC cell line. The note with it: for IC50: Homo sapiens. The method, then:
as §1, §2, §3
(§4) Cell Lines and Culture: Twenty-seven human colon cancer cell lines, were obtained from American Type Culture Collection (Manassas, Va.). The GEO cells were a generous gift from Dr. Fortunato Ciardiello (Cattedra di Oncologia Medica, Dipartimento Medico-Chirurgico di Internistica Clinica e Sperimentale “F Magrassi e A Lanzara,” Seconda Università degli Studi di Napoli, Naples). All cells except GEO were grown in RPMI medium supplemented with 10% fetal bovine serum, 1% non-essential amino acids, 1% penicillin/streptomycin and were maintained at 37° C. in an incubator under an atmosphere containing 5% CO2. GEO cells were grown in DMEM/F12 supplemented with 10% fetal bovine serum, 1% non-essential amino acids, 1% penicillin/streptomycin. The cells were routinely screened for the presence of mycoplasma (MycoAlert, Cambrex Bio Science, Baltimore, Md.) and were exposed to OSI-906 when they reached approximately 70% confluence. OSI-906 was provided by OSI Pharmaceuticals, (Boulder, Colo.) and prepared as a 10 mM stock solution in DMSO.
(§5) Assessment of responsiveness of a panel of CRC cell lines to OSI-906. In order to assess CRC cell lines with differential sensitivity to OSI-906, a panel of 27 CRC cell lines were exposed to increasing concentrations of OSI-906 and proliferation was measured using the SRB assay as described previously (Pitts, T M, et al. Mol Cancer Ther 2009; 8(2):342-9). As depicted in FIG. 17 there was a wide range of sensitivity of the CRC cell lines to OSI-906, the majority of the cell lines failing to reach an IC50 up to 5 μmol/L, but a clear distinction could be made between the cell lines that were sensitive and the cell lines that were resistant.

Another experiment concerns Colo201 CRC cell line. The note with it: for IC50: Homo sapiens, COLO 201. The method, then:
as §1, §2, §3, §4, §5

Another experiment has as its system SK-CO-1 CRC cell line. The note with it: for IC50: Homo sapiens. The method, then: as §1, §2, §3, §4, §5

For `C[C@]1(O)C[C@@H](c2nc(-c3ccc4ccc(-c5ccccc5)nc4c3)c3c(N)nccn32)C1` [OSI-906, cis-3-[8-amino-1-(2-phenyl-quinolin-7-yl)-imidazo[1,5-a]pyrazin-3-yl]-1-methyl-cyclobutanol], the IC50 is at most 1.5 µM in the experiment with HT29 CRC cell line (Homo sapiens, HT-29, 72 h, HT29, 72 hours, read-out: IC50, proliferation, OSI-906 (SRB)); at most 1.5 µM in the experiment with HT29 CRC cell line (Homo sapiens, HT-29, HT29, read-out: S/I/R to OSI-906); over 5 µM with SW620 CRC cell line (SW-620, 72 hours, read-out: IC50, proliferation, OSI-906 (SRB)); over 5 µM with SW620 CRC cell line (SW-620, read-out: S/I/R to OSI-906); over 5 µM with Colo201 CRC cell line (CoLo201, read-out: S/I/R to OSI-906); over 5 µM in the experiment on Colo201 CRC cell line (Colo201, 72 hours, read-out: IC50, proliferation, OSI-906 (SRB)). The IC50 was over 5 µM in the experiment with SK-CO-1 CRC cell line (72 hours, read-out: IC50, proliferation, OSI-906 (SRB)) and over 5 µM in the experiment on SK-CO-1 CRC cell line (read-out: S/I/R to OSI-906).

Take `CN1CCN([C@H]2C[C@@H](c3nc(-c4ccc5ccc(-c6ccccc6)nc5c4)c4c(N)nccn43)C2)CC1` [PQIP, cis-3-[3-(4-Methyl-piperazin-1-yl)-cyclobutyl]1-(2-phenyl-quinolin-7-yl)-imidazo[1,5-a]pyrazin-8-ylamine]: the IC50 in the experiment on HT29 CRC cell line (HT29, 72 hours, 0.05-5 μM, read-out: IC50, growth inhibition by PQIP (SRB)) is about 0.3 µM; in the experiment with HT29 CRC cell line (Homo sapiens, HT-29, 72 h, HT29, 72 hours, 0.05-5 μM, read-out: IC50, growth inhibition by PQIP (SRB)), under 0.5 µM. For the same compound, in the experiment with HT29 CRC cell line (HT29, PQIP with SN38, oxaliplatin or 5-Fluorouracil concurrently 72 h, nearly all CI values, Chou and Talalay), the “combination index (CI) values, PQIP and chemotherapy” value is reported as 0.2-1.0. The “shift in sensitivity to PQIP after shRNA knockdown” value in the experiment with HT29 CRC cell line (HT29 with ALDH1A1 shRNA knockdown) was “no left shift in sensitivity”. Moreover, the “sensitivity to growth inhibition by PQIP (SRB)” value was “intermediate sensitivity” in the experiment on SW620 CRC cell line (72 hours, 0.05-5 μM); “intermediate sensitivity” in the experiment on Colo201 CRC cell line (Colo201, 72 hours, 0.05-5 μM); “intermediate sensitivity” with SK-CO-1 CRC cell line (72 hours, 0.05-5 μM).
